{"source": "paper PMC7115697", "about": "(Peptides, 2016)", "key": {"[1]": {"system": "lentiviruses coding EGFP and coated with FuG-C hybrid envelope protein", "assay_type": "cell-based"}, "[2]": {"system": "VLPs coated with Marburg virus envelope protein", "assay_type": "biochemical, Ebola virus"}, "[3]": {"system": "VLPs coated with VSV envelope protein", "assay_type": "biochemical, Ebola virus"}, "equine erythrocytes": {"system": "equine erythrocytes", "details": "pH 7.4"}, "human erythrocytes": {"system": "human erythrocytes", "details": "pH 7.4"}}}
{"substance": "GALA", "values": [{"measurement": "concentrations that effectively block the virus entry", "setting": "[1]", "result": "above 5 μM"}, {"measurement": "inhibitory effect on lentivirus infectivity", "setting": "[1]", "result": "remarkably potent inhibitor"}, {"measurement": "virolytic activity on enzymatic VLPs", "setting": "[2]", "result": "moderate virolytic activity"}, {"measurement": "virolytic activity on enzymatic VLPs", "setting": "[3]", "result": "moderate virolytic activity"}]}
{"substance": "Hecate", "values": [{"measurement": "inhibitory effect on lentivirus infectivity", "setting": "[1]", "result": "substantial antiviral effect"}, {"measurement": "hemolytic activity", "setting": "equine erythrocytes", "result": "virtually no effect on equine RBCs"}, {"measurement": "hemolytic activity", "setting": "human erythrocytes", "result": "moderately lyse human erythrocytes"}]}
{"substance": "WEAKLAKALAKALAKHLAKALAKALKACEA", "values": [{"measurement": "amount of produced GFP (GFP fluorescence of cell lysates)", "setting": "[1]", "result": "might slightly increase the amount of produced GFP but the increase is not significant"}, {"measurement": "inhibitory effect on lentivirus infectivity", "setting": "[1]", "result": "substantial antiviral effect"}, {"measurement": "hemolytic activity", "setting": "equine erythrocytes", "result": "moderate hemolytic activity"}, {"measurement": "hemolytic activity", "setting": "human erythrocytes", "result": "moderate hemolytic activity"}]}
